Measured values published in ChEMBL document CHEMBL1139759, “Discovery and SAR studies of novel GlyT1 inhibitors” (Bioorg Med Chem Lett, 2007).

How the values were obtained:
[1] = target: T1, Sodium- and chloride-dependent glycine transporter 2 (Homo sapiens, UniProt Q9Y345); assay: Inhibition of [14C]glycine reuptake at human GlyT2 expressed in BE(2)-C cells; format: cell-based
T1 sequence (Q9Y345 whole entry): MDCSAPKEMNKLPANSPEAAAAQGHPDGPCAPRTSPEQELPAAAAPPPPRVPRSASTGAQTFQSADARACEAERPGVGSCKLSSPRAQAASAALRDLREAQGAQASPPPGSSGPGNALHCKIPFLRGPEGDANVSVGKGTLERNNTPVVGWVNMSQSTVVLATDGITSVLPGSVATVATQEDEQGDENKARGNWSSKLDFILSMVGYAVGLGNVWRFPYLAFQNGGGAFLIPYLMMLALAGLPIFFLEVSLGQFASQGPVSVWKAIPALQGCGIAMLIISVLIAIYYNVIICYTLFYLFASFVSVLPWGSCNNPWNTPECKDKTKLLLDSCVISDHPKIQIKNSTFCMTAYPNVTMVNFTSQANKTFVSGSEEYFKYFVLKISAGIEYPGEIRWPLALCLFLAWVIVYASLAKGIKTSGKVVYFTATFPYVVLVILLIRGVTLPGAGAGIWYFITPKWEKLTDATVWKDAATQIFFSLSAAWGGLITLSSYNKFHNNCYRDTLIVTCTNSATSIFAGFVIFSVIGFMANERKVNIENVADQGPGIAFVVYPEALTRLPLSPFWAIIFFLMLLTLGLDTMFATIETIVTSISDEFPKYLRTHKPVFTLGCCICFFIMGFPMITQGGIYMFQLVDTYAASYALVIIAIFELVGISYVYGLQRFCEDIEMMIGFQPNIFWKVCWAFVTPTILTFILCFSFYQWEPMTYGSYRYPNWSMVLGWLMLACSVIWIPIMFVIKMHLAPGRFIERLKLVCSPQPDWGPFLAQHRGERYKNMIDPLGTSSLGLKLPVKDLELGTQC

Cerebrospinal fluid = assay: Drug level in rat cerebrospinal fluid at 30 mg/kg, sc; format: ADME, organism-based; set-up: dose 30 mg/kg, route subcutaneous; conditions: in vivo
Rattus norvegicus = assay: Increase in glycine level of Sprague-Dawley rat cerebrospinal fluid at 30 mg/kg, sc; format: functional; conditions: route subcutaneous
[2] = target: T2, Sodium- and chloride-dependent glycine transporter 1 (Homo sapiens, UniProt P48067); assay: Inhibition of [14C]glycine reuptake at human GlyT1 expressed in BE(2)-C cells; format: cell-based
T2 sequence (P48067 whole entry): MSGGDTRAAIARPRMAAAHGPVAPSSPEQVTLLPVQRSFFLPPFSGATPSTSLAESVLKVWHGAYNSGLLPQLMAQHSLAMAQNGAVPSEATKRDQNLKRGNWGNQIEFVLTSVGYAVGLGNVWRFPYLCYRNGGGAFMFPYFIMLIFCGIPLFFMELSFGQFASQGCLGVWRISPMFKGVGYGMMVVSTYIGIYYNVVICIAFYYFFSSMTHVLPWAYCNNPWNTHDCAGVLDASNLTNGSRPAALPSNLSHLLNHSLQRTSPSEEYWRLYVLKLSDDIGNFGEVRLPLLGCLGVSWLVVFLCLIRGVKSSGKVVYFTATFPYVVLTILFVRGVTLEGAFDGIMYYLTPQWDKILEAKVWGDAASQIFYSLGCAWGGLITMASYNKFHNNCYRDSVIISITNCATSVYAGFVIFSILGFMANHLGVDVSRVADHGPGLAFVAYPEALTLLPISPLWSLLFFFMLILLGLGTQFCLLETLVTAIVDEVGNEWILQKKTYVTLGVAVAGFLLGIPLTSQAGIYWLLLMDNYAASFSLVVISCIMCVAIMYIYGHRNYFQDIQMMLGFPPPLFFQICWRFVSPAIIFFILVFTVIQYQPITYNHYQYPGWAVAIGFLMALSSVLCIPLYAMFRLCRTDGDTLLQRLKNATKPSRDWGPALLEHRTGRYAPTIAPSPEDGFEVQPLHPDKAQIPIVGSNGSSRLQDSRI

IC50 [1] [µM]	Drug uptake (Cerebrospinal fluid) [ng/mL]	IC50 [2] [µM]	SMILES	Activity (Rattus norvegicus) [%]
> 30	47		CN(CC[C@@H](Oc1ccc(-c2ccccc2)cc1)c1ccc(F)cc1)CC(=O)O	204
> 30		0.012	CN(CCOc1ccc(-c2ccc3c(c2)OCO3)cc1-c1ccccc1Cl)CC(=O)O	
> 30		0.056	Cc1ccccc1-c1cc(-c2ccccc2)ccc1OCCN(C)CC(=O)O	
> 30		0.351	COc1ccccc1-c1cc(-c2ccccc2)ccc1OCCN(C)CC(=O)O	
> 30		0.139	CN(CCOc1ccc(-c2ccccc2)cc1-c1ccsc1)CC(=O)O	
> 30		0.175	CN(CCOc1ccc(-c2ccccc2Cl)cc1C(=O)c1cccs1)CC(=O)O	
> 30		0.026	CN(CCOc1ccc(-c2cccc(Cl)c2)cc1C(=O)c1cccs1)CC(=O)O	
> 30		0.632	Cc1ccccc1-c1ccc(OCCN(C)CC(=O)O)c(C(=O)c2cccs2)c1	
> 30		0.045	Cc1cccc(-c2ccc(OCCN(C)CC(=O)O)c(C(=O)c3cccs3)c2)c1	
> 30		0.059	Cc1ccc(-c2ccc(OCCN(C)CC(=O)O)c(C(=O)c3cccs3)c2)cc1	
> 30		0.027	COc1ccc(-c2ccc(OCCN(C)CC(=O)O)c(C(=O)c3cccs3)c2)cc1	
> 30		0.076	Cc1ccc(-c2ccc(OCCN(C)CC(=O)O)c(C(=O)c3cccs3)c2)cc1C	
> 30		0.957	CN(CCOc1ccc(-c2ccccc2)cc1-c1nccs1)CC(=O)O	
> 30		0.834	COc1ccc(-c2ccc(OCCN(C)CC(=O)O)c(C(=O)c3cccs3)c2)cc1OC	
> 30		0.019	CN(CCOc1ccc(-c2ccc3c(c2)OCO3)cc1C(=O)c1cccs1)CC(=O)O	
> 30		0.496	CN(CCOc1ccc(-c2ccccc2)cc1-c1cccc2ccccc12)CC(=O)O	
> 30		0.04	CN(CCOc1ccc(-c2ccccc2)cc1Cc1cccs1)CC(=O)O	
> 30	113	0.07	CN(CCOc1ccc(-c2ccccc2)cc1-c1cccs1)CC(=O)O	196
> 30		0.085	CN(CCOc1ccc(-c2ccccc2)cc1Cc1ccccc1)CC(=O)O	
> 30		0.229	CN(CCOc1ccc(-c2ccccc2)cc1-c1ccccc1)CC(=O)O	

IC50 [1] [µM]	Drug uptake (Cerebrospinal fluid) [ng/mL]	IC50 [2] [µM]	SMILES	Activity (Rattus norvegicus) [%]
> 30		0.07	CN(CCOc1ccc(-c2ccccc2)cc1C(=O)C1CCCCC1)CC(=O)O	
> 30		0.251	CN(CCOc1ccc(-c2ccccc2)cc1C1CCCCC1)CC(=O)O	
> 30		0.674	CN(CCOc1ccc(-c2ccccc2)cc1-c1cccc(Cl)c1)CC(=O)O	
> 30		0.108	CN(CCOc1ccc(-c2ccccc2)cc1-c1ccccc1F)CC(=O)O	
> 30		0.028	COc1ccc(-c2ccc(OCCN(C)CC(=O)O)c(-c3ccccc3Cl)c2)cc1C	
> 30		0.014	CN(CCOc1ccc(-c2ccc3c(c2)OCCO3)cc1-c1ccccc1Cl)CC(=O)O	
> 30		0.017	CN(CCOc1ccc(-c2ccc3c(c2)CCO3)cc1-c1cccs1)CC(=O)O	
> 30		0.965	CN(CCOc1ccc(-c2ccccc2)cc1-c1ccc(Cl)cc1)CC(=O)O	
> 30		0.013	CN(CCOc1ccc(-c2ccc3c(c2)CCO3)cc1-c1ccccc1Cl)CC(=O)O	
> 30		0.068	CN(CCOc1ccc(-c2ccc(Cl)cc2)cc1C(=O)c1cccs1)CC(=O)O	
> 30		0.104	COc1cccc(-c2ccc(OCCN(C)CC(=O)O)c(C(=O)c3cccs3)c2)c1	
> 30		0.018	COc1ccc(-c2ccc(OCCN(C)CC(=O)O)c(C(=O)c3cccs3)c2)cc1C	
> 30		0.289	CN(CCOc1ccc(-c2ccccc2)cc1CC1CCCCC1)CC(=O)O	
> 30	15	0.045	CN(CCOc1ccc(-c2ccccc2)cc1C(=O)c1cccs1)CC(=O)O	114
> 30		0.161	COc1ccc(-c2ccc(OCCN(C)CC(=O)O)c(-c3cccs3)c2)cc1C	
> 30		0.034	CN(CCOc1ccc(-c2ccc3c(c2)OCO3)cc1-c1cccs1)CC(=O)O	
> 30		0.702	CN(CCOc1ccc(C(F)(F)F)cc1C(=O)c1cccs1)CC(=O)O	
> 30		0.025	CN(CCOc1ccc(-c2ccc3c(c2)OCCO3)cc1-c1cccs1)CC(=O)O	
> 30		0.065	CN(CCOc1ccc(-c2ccccc2)cc1C(=O)c1ccccc1)CC(=O)O	
> 30	25	0.053	CN(CCOc1ccc(-c2ccccc2)cc1-c1ccccc1Cl)CC(=O)O	155
